Data on two compounds can be found in PMC8163394 (2020).

Experiment [1] relates to d(CGCAAATTTGCG)2 (DNA, duplex) CGCAAATTTGCG
Kind of experiment: emission titration (complex, decrease then increase), TRIR. The conditions noted are these: 50 mM potassium phosphate; pH 7; [Ru] 10 μM.

Experiment [2] concerns d(GCGCGCGCGC)2 (DNA, duplex) GCGCGCGCGC
Kind of experiment: TRIR and transient absorption. The conditions noted are these: 50 mM potassium phosphate; pH 7, D2O.

Experiment [3] concerns poly(dG-dC) (DNA, polymer) GC. Nature of the experiment: emission titration, McGhee-von Hippel fit. The conditions noted are these: 10 mM phosphate buffer (sodium in Fig. 2, potassium in Fig. S1); pH 7, air-saturated; [Ru] 20 μM; per base.
Experiment [4] deals with d(CGCGAATTCGCG)2 (DNA, duplex) CGCGAATTCGCG
Kind of experiment: emission titration (quenching), TRIR. The conditions noted are these: 50 mM potassium phosphate; pH 7; [Ru] 10 μM.

Experiment [5] has as its system poly(dA-dT) (DNA, polymer) AT. Kind of experiment: emission titration (enhancement), TRIR. The conditions noted are these: 10 mM sodium phosphate, [Ru] 8 μM.

On to `[Ru+2].c1ccc2nc3c4cccnc4c4ncccc4c3nc2c1.c1cnc2c(ccc3nccnc32)n1.c1cnc2c(ccc3nccnc32)n1` [Λ-1], for which the binding entry in experiment [1], in experiment [2], in experiment [4] and in experiment [5] (saturation not reached) was “yes” throughout. Further, the Kb in experiment [3] is listed as 1.2 ± 0.1 × 10^6 M^-1.

Consider `[Ru+2].c1ccc2nc3c4cccnc4c4ncccc4c3nc2c1.c1cnc2c(ccc3nccnc32)n1.c1cnc2c(ccc3nccnc32)n1` [Δ-1], for which the binding result in experiment [1], in experiment [2], in experiment [4] and in experiment [5] (reaches saturation) was “yes” throughout. Also, the Kb in experiment [3] is on record as 3.6 ± 0.2 × 10^6 M^-1.
